Measurements reported in PubChem BioAssay AID1259411 (Chemical Carcinogenesis Research Information System (CCRIS), 2018).
Activity calls are given as the source filed them. No rule for the calls is given here.

Test system: rodent carcinogenicity bioassays, tumor incidence
Assay: CCRIS carcinogenicity studies
Outline: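 NCI-built, expert-reviewed records of carcinogenicity and related test outcomes (mutagenicity, tumor promotion/inhibition) compiled from published and report sources, historical span 1985-2011, not updated.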

For `CCN(CC)C(=O)N(C)N=O`, the carcinogen call (Species: HAMSTER, Strain/Sex: SYRIAN/FEMALE, Route: SUBCUTANEOUS, Dose: 0, 7.75, 14.15, 28.3, 56.6 MG/KG IN 0.1 ML OLIVE OIL 1/WK FOR 52 WK (STUDY DURATION: LIFESPAN), Dose: 0, 7.75, 14.15, 28.3, 56.6 MG/KG IN 0.1 ML OLIVE OIL 1/WK FOR 52 WK (STUDY DURATION: LIFESPAN), Tumor Site: Type of Lesion: NASAL CAVITY: SQUAMOUS CELL CARCINOMA, SPLEEN: HEMANGIOENDOTHELIOMA, FORESTOMACH: SQUAMOUS CELL CARCINOMA, PAPILLOMA, Tumor Site: Type of Lesion: NASAL CAVITY: SQUAMOUS CELL CARCINOMA, SPLEEN: HEMANGIOENDOTHELIOMA, FORESTOMACH: SQUAMOUS CELL CARCINOMA, PAPILLOMA) was “active; positive”, the carcinogen call (Species: HAMSTER, Strain/Sex: SYRIAN/MALE, Route: GAVAGE, Dose: 0, 40 MG/ML ((0.2 ML OF A SOLUTION IN ETHYL ACETATE/CORN OIL (1:2)) 1/WK FOR 25 WK (STUDY DURATION: LIFE SPAN), Tumor Site: Type of Lesion: LIVER: HEMANGIOSARCOMA, CHOLANGIOMA OR CARCINOMA, SPLEEN: HEMANGIOSARCOMA, FORESTOMACH: SQUAMOUS CELL CARCINOMA OR PAPIL, Tumor Site: Type of Lesion: LIVER: HEMANGIOSARCOMA, CHOLANGIOMA OR CARCINOMA, SPLEEN: HEMANGIOSARCOMA, FORESTOMACH: SQUAMOUS CELL CARCINOMA OR PAPIL) was “active; positive” and the carcinogen call (Species: HAMSTER, Strain/Sex: SYRIAN/MALE, Route: SUBCUTANEOUS, Dose: 0, 7.75, 14.15, 28.3, 56.6 MG/KG IN 0.1 ML OLIVE OIL 1/WK FOR 52 WK (STUDY DURATION: LIFESPAN), Dose: 0, 7.75, 14.15, 28.3, 56.6 MG/KG IN 0.1 ML OLIVE OIL 1/WK FOR 52 WK (STUDY DURATION: LIFESPAN), Tumor Site: Type of Lesion: NASAL CAVITY: SQUAMOUS CELL CARCINOMA, SPLEEN: HEMANGIOENDOTHELIOMA, FORESTOMACH: SQUAMOUS CELL CARCINOMA, PAPILLOMA, Tumor Site: Type of Lesion: NASAL CAVITY: SQUAMOUS CELL CARCINOMA, SPLEEN: HEMANGIOENDOTHELIOMA, FORESTOMACH: SQUAMOUS CELL CARCINOMA, PAPILLOMA) was “active; positive”.

With `O=C(O)c1cc2ccccc2c(N=Nc2ccccc2)c1O` the carcinogen call (Species: MOUSE, Strain/Sex: ICR/FEMALE, Route: DERMAL, Dose: 0, 1 MG IN 0.1 ML DISTILLED WATER 2/WK FOR A MEAN TOTAL DOSE OF 122.2 MG (STUDY DURATION: 18 MO)) was “inactive; negative” and the carcinogen call (Species: MOUSE, Strain/Sex: ICR/MALE, Route: DERMAL, Dose: 0, 1 MG IN 0.1 ML DISTILLED WATER 2/WK FOR A MEAN TOTAL DOSE OF 122.2 MG (STUDY DURATION: 18 MO)) was “inactive; negative”.

With `Clc1ccc(C(c2ccc(Cl)cc2)C(Cl)(Cl)Cl)cc1` the carcinogen call (Species: MOUSE, Strain/Sex: B6AKF1/MALE,FEMALE, Route: GAVAGE/ORAL, Dose: 46.4 MG/KG FROM D 7-28 OF LIFE THEN 140 PPM IN DIET, Tumor Site: Type of Lesion: LIVER: HEPATOMA) was “active; positive”, the carcinogen call (Species: MOUSE, Strain/Sex: B6C3F1/FEMALE, Route: ORAL, Dose: 0, 87, 175 PPM IN DIET, TWA, Dose: 0, 87, 175 PPM IN DIET, TWA) was “inactive; negative” and the carcinogen call (Species: MOUSE, Strain/Sex: B6C3F1/MALE,FEMALE, Route: GAVAGE/ORAL, Dose: 46.4 MG/KG FROM D 7-28 OF LIFE THEN 140 PPM IN DIET, Tumor Site: Type of Lesion: LIVER: HEPATOMA) was “active; positive”. For the same compound, the carcinogen call (Species: MOUSE, Strain/Sex: B6C3F1/MALE, Route: ORAL, Dose: 0, 22, 90 PPM IN DIET, TWA, Dose: 0, 22, 90 PPM IN DIET, TWA) was “inactive; negative”, the carcinogen call (Species: MOUSE, Strain/Sex: BALB/MALE, Route: ORAL, Dose: 0, 175 PPM IN ACETONE ADDED TO DIET FOR 8 WK THEN BY 125 PPM FOR 8 WK AND 100 PPM FOR 59 WK (STUDY DURATION: 75 WK), Tumor Site: Type of Lesion: LIVER: HEPATOCELLULAR ADENOMA, HEPATOCELLULAR CARCINOMA) was “active; positive” and the carcinogen call (Species: MOUSE, Strain/Sex: CF-1/MALE,FEMALE, Route: DIET, Dose: 0, 50, 100 PPM FOR 2 YR, Tumor Site: Type of Lesion: LIVER) was “active; positive”. For the same compound, the carcinogen call (Species: MOUSE, Strain/Sex: CF-1/MALE,FEMALE, Route: DIET, Dose: 100 PPM FOR 110 WK, Tumor Site: Type of Lesion: LIVER) was “active; positive”, the carcinogen call (Species: RAT, Route: ORAL, Tumor Site: Type of Lesion: LIVER) was “active; positive” and the carcinogen call (Species: RAT, Strain/Sex: OSBORNE-MENDEL/FEMALE, Route: ORAL, Dose: 0, 210, 420 PPM IN DIET, TWA, Dose: 0, 210, 420 PPM IN DIET, TWA) was “inactive; negative”. For the same compound, the carcinogen call (Species: RAT, Strain/Sex: OSBORNE-MENDEL/MALE, Route: ORAL, Dose: 0, 321, 642 PPM IN DIET, TWA, Dose: 0, 321, 642 PPM IN DIET, TWA) was “inactive; negative”.

`Cl/C=C/CCl` was tested, and the carcinogen call (Species: MOUSE, Strain/Sex: B6C3F1/FEMALE, Route: GAVAGE, Dose: 0, 50, 100 MG/KG BODY WT (TELONE II) IN CORN OIL 3 D/WK FOR 104 WK, Dose: 0, 50, 100 MG/KG BODY WT (TELONE II) IN CORN OIL 3 D/WK FOR 104 WK, Tumor Site: Type of Lesion: URINARY BLADDER: TRANSITIONAL CELL CARCINOMA, LUNG: ALVEOLAR/BRONCHIOLAR ADENOMA, ALVEOLAR/BRONCHIOLAR ADENOMA OR CARCIN) was “active; positive”, the carcinogen call (Species: MOUSE, Strain/Sex: B6C3F1/FEMALE, Route: INHALATION, Dose: 0, 5, 20, 60 PPM TECHNICAL GRADE 6 HR/D 5 D/WK FOR 2 YR (STUDY DURATION: 2 YR), Dose: 0, 5, 20, 60 PPM TECHNICAL GRADE 6 HR/D 5 D/WK FOR 2 YR (STUDY DURATION: 2 YR)) was “inactive; negative” and the carcinogen call (Species: MOUSE, Strain/Sex: B6C3F1/FEMALE, Route: ORAL, Dose: 0, 2.5, 25, 50 MG/KG BW IN DIET FOR 104 WK (STUDY DURATION: 104 WK), Dose: 0, 2.5, 25, 50 MG/KG BW IN DIET FOR 104 WK (STUDY DURATION: 104 WK)) was “inactive; negative”. The carcinogen call (Species: MOUSE, Strain/Sex: B6C3F1/MALE, Route: INHALATION, Dose: 0, 5, 20, 60 PPM TECHNICAL GRADE 6 HR/D 5 D/WK FOR 2 YR (STUDY DURATION: 2 YR), Dose: 0, 5, 20, 60 PPM TECHNICAL GRADE 6 HR/D 5 D/WK FOR 2 YR (STUDY DURATION: 2 YR), Tumor Site: Type of Lesion: LUNG: BRONCHIOALVEOLAR ADENOMA) was “active; positive”, the carcinogen call (Species: MOUSE, Strain/Sex: B6C3F1/MALE, Route: ORAL, Dose: 0, 2.5, 25, 50 MG/KG BW IN DIET FOR 104 WK (STUDY DURATION: 104 WK), Dose: 0, 2.5, 25, 50 MG/KG BW IN DIET FOR 104 WK (STUDY DURATION: 104 WK)) was “inactive; negative” and the carcinogen call (Species: RAT, Strain/Sex: F344/FEMALE, Route: GAVAGE, Dose: 0, 25, 50 MG/KG BODY WT (TELONE II) IN CORN OIL 3 D/WK FOR 104 WK, Dose: 0, 25, 50 MG/KG BODY WT (TELONE II) IN CORN OIL 3 D/WK FOR 104 WK, Tumor Site: Type of Lesion: FORESTOMACH: SQUAMOUS CELL PAPILLOMA) was “active; positive”. For the same compound, the carcinogen call (Species: RAT, Strain/Sex: F344/FEMALE, Route: INHALATION, Dose: 0, 5, 20, 60 PPM TECHNICAL GRADE 6 HR/D 5 D/WK FOR 2 YR (STUDY DURATION: 2 YR), Dose: 0, 5, 20, 60 PPM TECHNICAL GRADE 6 HR/D 5 D/WK FOR 2 YR (STUDY DURATION: 2 YR)) was “inactive; negative”, the carcinogen call (Species: RAT, Strain/Sex: F344/FEMALE, Route: ORAL, Dose: 0, 2.5, 12.5, 25 MG/KG BW IN DIET FOR 104 WK (STUDY DURATION: 104 WK), Dose: 0, 2.5, 12.5, 25 MG/KG BW IN DIET FOR 104 WK (STUDY DURATION: 104 WK), Tumor Site: Type of Lesion: LIVER: HEPATOCELLULAR ADENOMA) was “active; positive” and the carcinogen call (Species: RAT, Strain/Sex: F344/MALE, Route: GAVAGE, Dose: 0, 25, 50 MG/KG BODY WT (TELONE II) IN CORN OIL 3 D/WK FOR 104 WK, Dose: 0, 25, 50 MG/KG BODY WT (TELONE II) IN CORN OIL 3 D/WK FOR 104 WK, Tumor Site: Type of Lesion: FORESTOMACH: SQUAMOUS CELL PAPILLOMA, SQUAMOUS CELL PAPILLOMA OR CARCINOMA, LIVER: NEOPLASTIC NODULE, NEOPLASTIC NODULE) was “active; positive”. For the same compound, the carcinogen call (Species: RAT, Strain/Sex: F344/MALE, Route: INHALATION, Dose: 0, 5, 20, 60 PPM TECHNICAL GRADE 6 HR/D 5 D/WK FOR 2 YR (STUDY DURATION: 2 YR), Dose: 0, 5, 20, 60 PPM TECHNICAL GRADE 6 HR/D 5 D/WK FOR 2 YR (STUDY DURATION: 2 YR)) was “inactive; negative” and the carcinogen call (Species: RAT, Strain/Sex: F344/MALE, Route: ORAL, Dose: 0, 2.5, 12.5, 25 MG/KG BW IN DIET FOR 104 WK (STUDY DURATION: 104 WK), Dose: 0, 2.5, 12.5, 25 MG/KG BW IN DIET FOR 104 WK (STUDY DURATION: 104 WK), Tumor Site: Type of Lesion: LIVER: HEPATOCELLULAR ADENOMA) was “active; positive”.

In the case of `COS(C)(=O)=O`, the carcinogen call (Species: MOUSE, Route: INTRAPERITONEAL, Tumor Site: Type of Lesion: LUNG) is reported as “active; positive”, the carcinogen call (Species: MOUSE, Route: ORAL, Tumor Site: Type of Lesion: LUNG, THYMUS GLAND) is reported as “active; positive” and the carcinogen call (Species: RAT, Strain/Sex: SPRAGUE-DAWLEY/MALE, Route: INHALATION, Dose: 0, 50 PPM 6 HR/D 5 D/WK FOR 30 D (STUDY DURATION: LIFETIME), Tumor Site: Type of Lesion: NASAL CAVITY: TUMORS) is reported as “active; positive”.
